Some test systems named below: SK-MEL-2 melanoma; 786-0 renal; DLD-1 colon; RPMI-8226 leukemia; K-562 leukemia; LOX IMVI melanoma; A498 renal; DMS 114 small cell lung; ACHN renal.
Holding throughout (experiment): DTP human tumour cell line panel, 48 h

Structures are written as SMILES.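 Five compound concentrations were applied to cells in 96-well plates for 48 hours; endpoints were derived by simple linear interpolation of the resulting dose-response curve. GI50 marks 50% less growth. TGI marks complete inhibition of growth.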 Where only a bound is given, the exact number is not on record here.

This note sets out measurements from PubChem BioAssay (NCI).

What is called TGI is the concentration at which net growth stops. A higher TGI goes with lower sensitivity of the cells. As for `c1ccc(C2OC3(CCC[C@H]4C[C@H]43)O[C@H]2c2ccccc2)cc1` (stereo partly specified), the TGI with SK-MEL-2 melanoma was 39.6 µM; with 786-0 renal it was greater than 100 µM; with DLD-1 colon, greater than 100 µM; in the test on RPMI-8226 leukemia it was 96.9 µM; in the test on K-562 leukemia it was greater than 100 µM; with LOX IMVI melanoma, 56.8 µM. Further, the TGI was greater than 100 µM in the test with A498 renal, 74.9 µM with DMS 114 small cell lung and greater than 100 µM in the test on ACHN renal.

On to `O=C1N2Cc3c4ccc5c3CN3C(=O)N6Cc7c(ccc(c7CN1C6(c1ccccc1)C23c1ccccc1)OCCOCCNCCOCCO4)OCCOCCNCCOCCO5` (stereo unspecified), for which the TGI in the test with SK-MEL-2 melanoma is greater than 100 µM; with 786-0 renal, 97.4 µM; in the test with DLD-1 colon it was greater than 100 µM; with RPMI-8226 leukemia, 92.2 µM; in the test with K-562 leukemia, greater than 100 µM; in the test with A498 renal it was greater than 100 µM. The TGI in the test on DMS 114 small cell lung was greater than 100 µM; with ACHN renal it was 47.9 µM.

As to `O=C1C(c2ccc(Br)cc2)=[N+]([O-])c2ccccc21`, the TGI was 57.6 µM in the test on SK-MEL-2 melanoma; 30.9 µM with 786-0 renal; 25 µM with DLD-1 colon; greater than 100 µM in the test on RPMI-8226 leukemia; 33.5 µM with K-562 leukemia; 21.7 µM in the test on LOX IMVI melanoma. For the same compound, the TGI in the test with A498 renal was 56.1 µM; in the test with DMS 114 small cell lung it was 12.2 µM; with ACHN renal, 26.2 µM.

In the case of `O=C(O)[C@H](NS(=O)(=O)c1ccc(F)cc1)c1ccccc1`, the TGI in the test with SK-MEL-2 melanoma, in the test with 786-0 renal, in the test with DLD-1 colon, in the test with RPMI-8226 leukemia, in the test on K-562 leukemia and in the test with LOX IMVI melanoma was greater than 100 µM in each case. The TGI in the test with DMS 114 small cell lung and with ACHN renal was greater than 100 µM each time.

With `O=[N+]([O-])C=C(c1ccc(Cl)cc1)c1ccc(Cl)cc1`, the TGI was 57 µM in the test on SK-MEL-2 melanoma; 30.6 µM in the test with 786-0 renal; 32 µM in the test on DLD-1 colon; 34 µM in the test with RPMI-8226 leukemia; 50.2 µM in the test on K-562 leukemia; 25.5 µM in the test on LOX IMVI melanoma. The TGI in the test on A498 renal is 36.2 µM; with DMS 114 small cell lung, 28.5 µM; in the test with ACHN renal, 30.5 µM.

`CN(C)CCNC(=O)c1cccc2cc3c(Cl)cccc3nc12`: the TGI is 3.5 µM with SK-MEL-2 melanoma; greater than 20.2 µM in the test on 786-0 renal; 4.46 µM in the test with DLD-1 colon; 14.2 µM in the test with RPMI-8226 leukemia; 4.04 µM in the test with K-562 leukemia; 2.33 µM in the test on LOX IMVI melanoma. For the same compound, the results for the TGI in the test with A498 renal, with DMS 114 small cell lung and with ACHN renal were 3.21 µM, 3.69 µM and 2.35 µM, respectively.

In the case of `CCOC(=O)C(=O)CC1=Nc2ccccc2SC(c2cccc(C)c2)C1` (stereo unspecified), the TGI in the test on SK-MEL-2 melanoma worked out at 30.5 µM; with 786-0 renal, 32.4 µM; in the test on DLD-1 colon, 34.1 µM; in the test on RPMI-8226 leukemia it was 67.3 µM; with K-562 leukemia it was 57.6 µM; in the test on A498 renal it was 33 µM. For the same compound, the TGI in the test with DMS 114 small cell lung came to 35 µM; in the test with ACHN renal, 30.3 µM.

For the compound `CC1/C(=N\O)CC(c2ccccc2)N(C)C1c1ccccc1` (stereo unspecified), the TGI with SK-MEL-2 melanoma, with 786-0 renal, in the test on DLD-1 colon, in the test with K-562 leukemia, in the test on LOX IMVI melanoma and in the test with A498 renal was greater than 100 µM in each case. The TGI in the test with DMS 114 small cell lung and in the test on ACHN renal was greater than 100 µM in each case.

As for `CC1=C(C(=O)Nc2ccccc2)C(c2cccc3ccccc23)C(C(=O)Nc2ccccc2)=C(C)N1`, the TGI with SK-MEL-2 melanoma was 34.7 µM; in the test with 786-0 renal, 52.5 µM; with DLD-1 colon it was greater than 100 µM; in the test with K-562 leukemia, 72.5 µM; with LOX IMVI melanoma it was 30.4 µM; with A498 renal, 48.5 µM. Besides, the TGI with DMS 114 small cell lung was determined as 55.7 µM; in the test on ACHN renal, 83.8 µM.

As for `Cc1cc2c(C)n(Cc3ccccc3Cl)nc2c(C(=O)O)c1C`, the TGI with SK-MEL-2 melanoma, in the test on 786-0 renal, in the test with DLD-1 colon, with RPMI-8226 leukemia, with LOX IMVI melanoma and with ACHN renal was greater than 100 µM each time.

Take `O=C(CC1OC(O)C(Cl)=C1Cl)c1cccnc1` (stereo unspecified): the concentration for total growth inhibition (TGI) with 786-0 renal was greater than 60.1 µM; with RPMI-8226 leukemia, greater than 60.8 µM; in the test with K-562 leukemia it was greater than 100 µM; in the test with LOX IMVI melanoma, greater than 100 µM; with A498 renal it was greater than 100 µM; in the test on DMS 114 small cell lung, greater than 56.5 µM. This compound gave a TGI with ACHN renal greater than 31.6 µM.

As to `CN(C)C(=N/O)/C(=N\O)N(C)C`, the TGI in the test with SK-MEL-2 melanoma, with 786-0 renal, in the test with DLD-1 colon, in the test on RPMI-8226 leukemia, with K-562 leukemia and with LOX IMVI melanoma was greater than 100 µM each time. In addition, the TGI in the test on A498 renal, in the test with DMS 114 small cell lung and in the test on ACHN renal was greater than 100 µM each time.

As for `O=C1C=CC=C/C1=C1/SC(c2ccccc2)=C(O)N1c1ccccc1`, the TGI in the test with SK-MEL-2 melanoma, in the test with 786-0 renal, in the test on DMS 114 small cell lung and in the test on ACHN renal was greater than 100 µM in each case.

As usually defined, the GI50 is the concentration that inhibits growth by half. As for `C[CH2][Ge]([CH2]C)([CH2]C)[O]C(=O)C(OC(C)=O)c1ccccc1` (stereo unspecified), the GI50 was greater than 100 µM in the test with 786-0 renal; greater than 100 µM in the test on DLD-1 colon; 31 µM in the test with RPMI-8226 leukemia; greater than 100 µM with K-562 leukemia; greater than 100 µM in the test on LOX IMVI melanoma; greater than 100 µM in the test with A498 renal. Also, the GI50 in the test on DMS 114 small cell lung is 42.1 µM; in the test with ACHN renal it was greater than 100 µM. Moreover, the TGI in the test with 786-0 renal, with DLD-1 colon, with RPMI-8226 leukemia, in the test with K-562 leukemia, in the test with LOX IMVI melanoma and with A498 renal was greater than 100 µM in each case. For the same compound, the TGI in the test with DMS 114 small cell lung and with ACHN renal was greater than 100 µM in each case.

For the compound `COc1ccc2c3c([nH]c2c1[N+](=O)[O-])C(C)N(Cc1ccccc1)CC3` (stereo unspecified), the concentration for total growth inhibition (TGI) in the test with SK-MEL-2 melanoma was greater than 100 µM; with 786-0 renal, greater than 100 µM; in the test on DLD-1 colon, greater than 100 µM; in the test with RPMI-8226 leukemia, 7.56 µM; in the test with K-562 leukemia it was greater than 100 µM; in the test on LOX IMVI melanoma, greater than 100 µM. Moreover, the TGI with A498 renal was 7.71 µM; in the test with DMS 114 small cell lung it was greater than 100 µM; in the test with ACHN renal, greater than 100 µM.

Regarding `CC1=C(/C=C/C(C)=C/C2CC(N(C)C)=CC(=O)O2)C(C)(C)CCC1` (stereo unspecified), the TGI in the test with SK-MEL-2 melanoma turned out to be 27.4 µM; with 786-0 renal, 29.2 µM; in the test with DLD-1 colon, 32.8 µM; in the test with RPMI-8226 leukemia it was 19.3 µM; in the test with K-562 leukemia, 19.9 µM; in the test on LOX IMVI melanoma, 30.3 µM. For the same compound, the concentration for total growth inhibition (TGI) in the test with A498 renal came to 29.2 µM; in the test with DMS 114 small cell lung, 23.8 µM; in the test on ACHN renal, 24.8 µM.
